We go through 16 molecules from ChEMBL document CHEMBL4002573, “New insights into the SAR and drug combination synergy of 2-(quinolin-4-yloxy)acetamides against Mycobacterium tuberculosis” (Eur J Med Chem, 2017).

In brackets after ≈: the same amount, converted by molar mass.

Data set [1] concerns Mycobacterium tuberculosis. Nature of the data set: microbe, parasite or virus in culture. The note with it: H37Rv, 168 h.
Description: Antimycobacterial activity against Mycobacterium tuberculosis H37Rv after 7 days by resazurin reduction microplate assay
A short description of data set [2]: Kinetic solubility in PBS at pH 7.4. It is filed as physicochemical. The settings on record: read-out: Kinetic_solubility.
Data set [3] is described as follows: Cytotoxicity against human HaCaT cells assessed as viability at 10 uM after 72 hrs by MTT assay relative to control. It is filed as cell-based. The settings on record: read-out: Activity. In general terms: Tetrazolium assays rely on reduction of a dye to a coloured formazan, in cell work by metabolically active cells.
A short description of data set [4]: Cytotoxicity against mouse N9 cells assessed as viability at 10 uM after 72 hrs by MTT assay relative to control. The settings on record: read-out: Activity. It is filed as cell-based.
Data set [5] relates to Mycobacterium tuberculosis. Nature of the data set: microbe, parasite or virus in culture. The settings on record: PE-003, 168 h.
Description: Antimycobacterial activity against Mycobacterium tuberculosis PE-003 clinical isolate after 7 days by resazurin reduction microplate assay
Data set [6] can be described thus: Thermodynamic solubility of the compound in acetate buffer at pH 4 after 24 hrs by HPLC method. The class given is physicochemical. The settings on record: read-out: Therm_solubility.
Data set [7] can be described thus: Cytotoxicity against mouse RAW264.7 cells assessed as viability at 10 uM after 72 hrs by MTT assay relative to control. The class given is cell-based. The settings on record: read-out: Activity.
Data set [8] in a line: Intrinsic clearance in human liver S9 fraction at 2 uM by HPLC-MS/MS analysis. It is filed as ADME, tissue-based.
Data set [9] deals with Mycobacterium tuberculosis. Nature of the data set: microbe, parasite or virus in culture. The settings on record: CDCT-4 (1105/09), 168 h.
Description: Antimycobacterial activity against Mycobacterium tuberculosis CDCT-4 (1105/09) clinical isolate after 7 days by resazurin reduction microplate assay
Data set [10] is described as follows: Thermodynamic solubility of the compound in 0.1N HCl at pH 1.5 after 24 hrs by HPLC method. The settings on record: read-out: Therm_solubility. The class given is physicochemical.
The test system of data set [11] is Mycobacterium tuberculosis. Kind of data set: Bactericidal activity against Mycobacterium tuberculosis H37Rv infected in mouse RAW264.7 cells assessed as bacterial colony formation at 5 uM after 5 days (reference value: 4.1 to 4.73 log10CU). It is filed as functional.
Data set [12] is described as follows: Cytotoxicity against human HepG2 cells assessed as viability at 10 uM after 72 hrs by MTT assay relative to control. The class given is cell-based. The settings on record: read-out: Activity.
Data set [13] can be described thus: Permeability of the compound at 1 uM […] by PAMPA. It is filed as physicochemical. The note with it: read-out: permeability. A general note: PAMPA measures passive passage across an artificial lipid membrane.
Data set [14] in a line: Kinetic solubility in water at pH 5.8. The settings on record: read-out: Kinetic_solubility. It is filed as physicochemical.
Data set [15] in a line: Half life in human liver S9 fraction at 2 uM by HPLC-MS/MS analysis. The class given is ADME, tissue-based.
Data set [16] can be described thus: Cytotoxicity against African green monkey Vero cells assessed as viability at 10 uM after 72 hrs by MTT assay relative to control. The class given is cell-based. The note with it: chlorocebus sabaeus, read-out: Activity.

For the molecule `COc1ccc2nc(C)cc(OCC(=O)N[C@H]3CCCc4ccccc43)c2c1`, the MIC in data set [1] is 1.66 µM.
Turning to `COc1ccccc1NC(=O)COc1cc(C)nc2ccc(Cl)cc12`, the MIC in [1] stood at 1.75 µM.
Still for that read-out and setting: with `COc1ccc2nc(C)c(Cc3ccccc3)c(OCC(=O)Nc3ccccc3OC)c2c1` the figure was above 22.6 µM; with `CCc1cc(OCC(=O)Nc2ccccc2OC)c2cc(OC)ccc2n1`, 0.86 µM.
The same measure, in the same setting: with `COc1ccc2nc(C)cc(OCC(=O)N(c3ccccc3)c3ccccc3)c2c1` the figure was above 25.1 µM.
As usually defined, the half-life is the time in which the quantity being followed falls by half. As for `COc1ccc2nc(C)cc(OCC(=O)Nc3ccc(C)c(C)c3)c2c1`, the solubility kinetic in data set [2] was found to be 10.7 µM (≈ 3.75 µg/mL); in [14], 10.4 µM (≈ 3.64 µg/mL). Further, the viability at 72 h, 10 µM in data set [3] was determined as 94%; in data set [4], 105%; in [7] it was 88%; in data set [12], 71%; in [16] it was 85%. Moreover, the values for the MIC in data set [5], in data set [9] and in data set [1] were 0.04 µM (≈ 0.014 µg/mL), 0.11 µM (≈ 0.0385 µg/mL) and 0.11 µM, respectively. Further, the solubility thermodynamic at 24 h in [6] was determined as 410 µM (≈ 144 µg/mL); in data set [10], 80 µM (≈ 28 µg/mL). In addition, the CLhep predicted at 2 µM in data set [8] is 16.2 mL/min/kg. In data set [11], the Activity is reported as 3.35 log10CFU. In addition, the Papp at 1 µM in data set [13] worked out at 5.9 ×10⁻⁶ cm/s. In addition, in data set [15], the half-life at 2 µM came out at 14.2 min.
For the molecule `CCc1ccc(NC(=O)COc2cc(C)nc3ccc(OC)cc23)cc1`, the solubility kinetic came to 3.8 µM (≈ 1.33 µg/mL) in data set [2] and 5.2 µM (≈ 1.82 µg/mL) in data set [14]. In addition, the viability at 72 h, 10 µM in data set [3] came to 96%; in data set [4] it was 112%; in data set [7], 91%; in data set [12], 75%; in [16], 80%. The figures for the MIC in data set [5], in data set [9] and in data set [1] were 0.006 µM (≈ 0.0021 µg/mL), below 0.06 µM and 0.06 µM, respectively. For the same molecule, the solubility thermodynamic at 24 h in data set [6] was 430 µM (≈ 151 µg/mL); in data set [10], 790 µM (≈ 277 µg/mL). Also, the CLhep predicted at 2 µM in [8] is 16.6 mL/min/kg. In [11], the Activity came to 2.81 log10CFU. In [15], this molecule displayed a half-life at 2 µM of 12.8 min.
Consider `COc1ccc2nc(C)cc(OCC(=O)Nc3ccc4c(c3)CCC4)c2c1`, for which the solubility kinetic in data set [2] and in data set [14] was 2.8 µM (≈ 1.01 µg/mL) throughout. For the same molecule, the viability at 72 h, 10 µM in [3] is 99%; in data set [4], 111%; in [7], 88%; in data set [12], 95%; in data set [16], 97%. Further, the values for the MIC in data set [5], in data set [9] and in [1] were 0.005 µM (≈ 0.00181 µg/mL), below 0.05 µM and 0.05 µM, respectively. Further, the solubility thermodynamic at 24 h in data set [6] turned out to be 120 µM (≈ 43.5 µg/mL); in [10] it was 240 µM (≈ 87 µg/mL). Further, the CLhep predicted at 2 µM in data set [8] is 16.9 mL/min/kg. For the same molecule, the Activity in [11] is on record as 3.54 log10CFU. The Papp at 1 µM in data set [13] stood at 13.1 ×10⁻⁶ cm/s. In data set [15], this molecule displayed a half-life at 2 µM of 11.7 min.
Consider `COc1ccc2nc(C)cc(OCc3ccc4ccccc4c3)c2c1`, for which, in data set [1], the MIC is 1.9 µM.
In data set [1], `COc1ccc2nc(C)cc(OCC(=O)Nc3cccc4c3CCCC4)c2c1` registered an MIC of 0.83 µM.
On to `CC[C@@H](CO)NCCN[C@@H](CC)CO` [ETHAMBUTOL], for which, in data set [1], the MIC is 2.5 to 5 µg/mL.
With `CCc1cc(C(N)=S)ccn1` [ETHIONAMIDE], the results for the MIC in data set [5], in [9] and in data set [1] were 61.2 µM (≈ 10.2 µg/mL), 11.3 µM (≈ 1.88 µg/mL) and 2.5 µg/mL, respectively.
Take `NNC(=O)c1ccncc1` [ISONIAZID]: the MIC in data set [5] was above 70 µM; in data set [9], above 70 µM; in data set [1] it was 0.16 to 1.46 µM. Further, the Activity in data set [11] was found to be 2.44 log10CFU.
Regarding `COc1c(N2C[C@@H]3CCCN[C@@H]3C2)c(F)cc2c(=O)c(C(=O)O)cn(C3CC3)c12` [MOXIFLOXACIN], the MIC in data set [1] was 0.075 µg/mL.
In the case of `CO[C@H]1/C=C/O[C@@]2(C)Oc3c(C)c(O)c4c(O)c(c(/C=N/N5CCN(C)CC5)c(O)c4c3C2=O)NC(=O)/C(C)=C\C=C\[C@H](C)[C@H](O)[C@@H](C)[C@@H](O)[C@@H](C)[C@H](OC(C)=O)[C@@H]1C` [RIFAMPIN], the MIC was above 100 µM in [9] and 0.038 µg/mL in [1]. For the same molecule, in data set [11], the Activity turned out to be 2.44 log10CFU.
Turning to `CN[C@@H]1[C@H](O[C@H]2[C@H](O[C@H]3[C@H](O)[C@@H](O)[C@H](N=C(N)N)[C@@H](O)[C@@H]3N=C(N)N)O[C@@H](C)[C@]2(O)C=O)O[C@@H](CO)[C@H](O)[C@H]1O` [STREPTOMYCIN], the MIC in data set [1] is 0.31 µg/mL.
